Experiments:
IL-1 = test: Example 6: IL-1 production by peritoneal macrophages in response to LPS; format: in vivo, BALB/c mice; details: 2 injections 12 hours apart; macrophages stimulated with LPS 25 μg/ml 24 hours; thymocyte co-stimulation bioassay; FIG. 4
Procedure: Mice (BALB/c, female) 13-14 g, 5 animals in each group, received 2 injections of MDPs, 12 hours apart. The MDPs tested were MDP, muroctasin, MDP-Thr, MDP-OBu, GMDP-LL, GMDP-Lys(St) and GMDP-A. After the last injection, peritoneal cells were collected and the induction of IL-1 secretion by peritoneal macrophages was tested.
Macrophages were collected from the peritoneal cavity of mice by lavage with Hank's balanced salt solution. After washing the cells, they were then placed in wells of flat-bottomed 96-well plates and incubated at 37° C. for 1 hour in RPMI containing 5% FCS. The plates were then washed with warm RPMI to remove non-adhering cells. LPS (25 μg/ml) was then added in fresh culture medium and the plates were further cultured for 24 hours.
Production of IL-1 by peritoneal macrophages was assayed by thymocyte co-stimulation bioassay. Thymocytes from (CBA*C57BL.6)F1 mice (106), PHA (1 μg.ml), and the tested supernatant (50 μl) were placed into the wells of flat-bottomed 96-well plates. Thymocyte proliferation rate was measured 72 hours later by the incorporation of 3H TdR (1 μCi.well) during 6 hours prior to culture termination.

TNFα = test: Example 8: TNF induction by muramyl peptides; format: in vivo, BALB/c mice; details: C. parvum-primed mice, 100 μg (equimolar) IP, LPS 25 μg 18 hours later; FIG. 6
Procedure: Here, the muramyl peptides tested were prototype MDP, GMDP, GMDP-A, GMDP-OBu, GMDP-Lys(St), GMDPA-Lys(St), GMDP-Benz and Thr-MDP.
(§1) BALB/mice (6 mice/groups) were injected intraperitoneally with 1.4 mg of dead C. parvum (0.2 ml of a 7 mg/ml suspension). Mice were subsequently (2 weeks later) treated with saline, MDP (100 μg) or analogue (100 μg) in 0.5 ml saline IP. The dose of each `MDP` was adjusted so that animals received equimolar amounts. LOS (25 μg) was injected 18 hours after the injection of MDP/analogue and the mice were subsequently sacrificed and bled out. TNF was determined by standard capture ELISA assay.

[1] = test system: LPS-induced mortality in mice; test: Example 3: LPS-induced mortality in mice; format: in vivo, BALB/c mice; details: i.p. twice daily 100 μg or molar equivalent per mouse for 9 days before 300 μg LPS; mortality 2 days after LPS; FIG. 1
Procedure: 25 female BALB/c mice weighing 16-18 g each were divided into 5 groups, each group containing 5 animals. Each group of mice received twice-daily doses of saline, GMDP, GMDP-OBu, MDP or GMDP-A. The compounds were administered by intra-peritoneal injection in twice-daily doses of 100 μg or the molar equivalent per mouse during a 9-day period before the injection of 300 μg LPS per mouse. […] Thus GMDP and GMDP-A would be useful in the treatment and prevention of sepsis and septic shock, whereas MDP and GMDP-OBu would not.

Pyrogenicity = details: in vivo
Procedure: The expression "non pyrogenic or of low pyrogenicity" refers to a compound which induces an increase in temperature of an adult human of less than half a degree following the administration of 1 to 2 mg of the compound.
First, muramyl peptide compounds useful in the invention may be non-pyrogenic. Pyrogenicity may be simply measured by methods well known in the art.

serum TNF = test: Example 7: LPS induction of serum TNF; format: in vivo, BALB/c mice; details: C. parvum-primed mice, 100 μg (equimolar) IP, LPS 25 μg 18 hours later; FIG. 5
Procedure: as §1, with “In this experiment, 4 compounds were tested and these are: MDP, GMDP-A, GMDP-OBu and GMDP. Saline was administered to control mice. BALB/c mice” for “BALB/mice”, “mice/group)” for “mice/groups)”, “suspension.).” for “suspension).”, “LPS” for “LOS”, “and” for “and the”

Compound	suppression of IL-1 production (IL-1)	effect on LPS-induced TNFα production (TNFα)	effect on LPS-induced mortality [1]	pyrogenicity (Pyrogenicity)	effect on LPS induction of serum TNF (serum TNF)
CCCCOC(=O)[C@@H](CCC(N)=O)NC(=O)[C@H](C)NC(=O)[C@@H](C)O[C@H]1[C@H](O)[C@@H](CO)OC(O)[C@@H]1NC(C)=O (stereo partly drawn) [MDP-OBu, N-acetylmuramyl-L-alanyl-D-glutamine-α-N-butyl ester, reference compound]	suppress the IL-1 response to LPS				
N*-[N-Acetyl-D-glucosaminyl-(β1-4)-N-acetyl-muramyl-L-alanyl-γ-D-glutamyl]-N*-stearoyl-L-lysine [GMDPA-Lys(St)]		enhance LPS-induced TNF production			
N*-[N-acetyl-D-glucosaminyl-(β1-4)-N-acetylmuramyl-L-alanyl-D-isoglutaminyl]-N*-stearoyl-L-lysine [GMDP-Lys(St)]	suppress the IL-1 response to LPS	enhance LPS-induced TNF production			
N-acetyl-D-glucosaminyl-(β1-4)-N acetylmuramyl-L-alanyl-D-glutamine n-butyl ester [GMDP-OBu]		consistently failed to synergise with LPS			
N-acetyl-D-glucosaminyl-(β1-4)-N-acetylmuramyl-L-alanyl-D-glutamicacid [GMDP-A]	suppress the IL-1 response to LPS		antagonise the effect of LPS	even less pyrogenic analogue	pro-inflammatory, causing an enhancement of the TNF levels induced by LPS

From patent US5506204A, “Muramyl compounds for treatment of septic shock” (Peptech (UK) Limited, priority 1991, dated 1996)
